Assay results: patent publication US11767330B2, “Citrate salt, pharmaceutical compositions, and methods of making and using the same” (Foghorn Therapeutics Inc., priority 2021, dated 2023)

Assay: Forced degradation study of compound D1 (HPLC)
Format: physicochemical
Procedure: Sample stock solution was prepared by weighing 60.74 mg of compound D1 to a 100 mL volumetric flask, dissolving by ultrasonic in 50 mL of diluent 2, diluting to volume with diluent 2, and mixing well.
Unstressed sample solution was prepared by weighing 21.32 mg of compound D1 into a 100 mL volumetric flask, dissolving by ultrasonic in 50 mL of diluent 3, diluting to volume with diluent 3, and mixing well.
Sample solution for pH=4.0 solution stability was prepared as follows. 20.96 mg of compound D1 were weighed into a 100 mL volumetric flask, dissolved by ultrasonic in 50 mL of pH=4.0 50 mM sodium citrate buffer, diluted to volume with pH=4.0 50 mM sodium citrate buffer, and mixed well.
Sample solution for pH=5.0 solution stability was prepared as follows. 20.75 mg of compound D were weighed into a 100 mL volumetric flask, dissolved by ultrasonic in 50 mL of pH=5.0 50 mM sodium citrate buffer, diluted to volume with pH=5.0 50 mM sodium citrate buffer, and mixed well.
Sample solution for pH=7.0 solution stability was prepared as follows. 19.91 mg of compound D1 and 684.71 mg KH2PO4 were weighed into a 100 mL volumetric flask, dissolved by ultrasonic in 50 mL of diluent 1, transferred 29.1 mL of 0.1N NaOH into the same volumetric flask, diluted to volume with diluent 1, and mixed well.
Acid degradation (1N HCl at RT). 3 mL of the sample stock solution (see above) were transferred into an 8 mL vial, 3 mL of 2N HCl solution were added, and the resulting mixture was mixed well. Samples were prepared in quadruplicate and kept at RT. At the sampling point, 2 mL of the sample were transferred into an 8 mL vial and neutralized with 1 mL of 2N NaOH.
Samples were prepared in triplicate and kept at RT. […]
Oxidation degradation (3% H2O2 at RT). 3 mL of the sample stock solution (see above) were transferred into an 8 mL vial, 3 mL of 6% H2O2 solution were added, and the resulting mixture was mixed well. Samples were prepared in quadruplicate and kept at RT. At the sampling time point, 2 mL of the solution were transferred into an 8 mL vial, neutralized with 1 mL of diluent 3, and mixed well.
Photolysis degradation (solid). About 60 mg of compound D1 were placed onto a watch glass. Samples were prepared in triplicate and placed in a photo chamber (see Table 8). At the sampling time point, the sample was placed in a vial for analysis. About 20.0±2.0 mg of the sample into a 100 mL volumetric flask, dissolved by ultrasonic in 50 mL of diluent 3, diluted to volume with diluent 3, and mixed well.
Dark control sample: one sample was prepared as described above for this test, but the watch glass was covered with aluminum foil, and processed as described above.
Solid: about 60 mg of compound D1 were weighted into an 8 mL vial. Samples were prepared in triplicate and placed in an oven at 80° C. At the sampling time point, about 20.0±2.0 mg of the sample were weighed into a 100 mL volumetric flask, dissolved by ultrasonic in 50 mL of diluent 3, diluted to volume with diluent 3, and mixed well.
Solution: 3 mL of the sample stock solution (see above) were transferred into an 8 mL vial. Samples were prepared in triplicate and placed them in an oven at 80° C. At the sampling time point, 1 mL of the solution was transferred into an 8 mL vial, neutralized with 2 mL of diluent 3, and mixed well.
Humidity degradation (92% RH for solid). About 60 mg of compound D1 were transferred into a 20 mL vial (without cap). Samples were prepared in triplicate and placed in a desiccator at 92% RH. At the sampling time point, about 20.0±2.0 mg of the sample were transferred into a 100 mL volumetric flask, dissolved by ultrasonic in 50 mL of diluent 3, diluted to volume with diluent 3, and mixed well.
Solution Stability. Samples were prepared tested under the solution stability conditions noted in Table 8. The sampling time points were as noted in Table 8.

[1] = Acid Hydrolysis, 1N HCl RT, 0 h
[2] = Acid Hydrolysis, 1N HCl RT, 1 d
[3] = Acid Hydrolysis, 1N HCl RT, 2 d
[4] = Acid Hydrolysis, 1N HCl RT, 3 d
[5] = Base Hydrolysis, 1N NaOH RT, 0 h
[6] = Base Hydrolysis, 1N NaOH RT, 1 h
[7] = Photolysis, 1.10 W/m^2/25° C. for solid, 13 h
[8] = Photolysis, 1.10 W/m^2/25° C. for solid, 26 h
[9] = Photolysis, 1.10 W/m^2/25° C. for solid, 39 h
[10] = Solution Stability, pH = 4.0, 50 mM Sodium citrate buffer at RT, 0 h
[11] = Solution Stability, pH = 4.0, 50 mM Sodium citrate buffer at RT, 1 d
[12] = Solution Stability, pH = 4.0, 50 mM Sodium citrate buffer at RT, 3 d
[13] = Solution Stability, pH = 4.0, 50 mM Sodium citrate buffer at RT, 7 d
[14] = Solution Stability, pH = 5.0 50 mM Sodium citrate buffer at RT, 0 h
[15] = Solution Stability, pH = 5.0 50 mM Sodium citrate buffer at RT, 1 d
[16] = Solution Stability, pH = 5.0 50 mM Sodium citrate buffer at RT, 3 d
[17] = Solution Stability, pH = 5.0 50 mM Sodium citrate buffer at RT, 7 d
[18] = Solution Stability, pH = 7.0 Phosphate buffer at RT, 0 h
[19] = Solution Stability, pH = 7.0 Phosphate buffer at RT, 1 d
[20] = Solution Stability, pH = 7.0 Phosphate buffer at RT, 2 d

## COc1cc(-c2cn(C)c(=O)c3cnc(N4CCC4)cc23)cc(OC)c1CN1CCC(CN2CCC3(CC2)CN(c2ccc4c(c2)C(=O)N(C2CCC(=O)NC2=O)C4)C3)CC1 (racemic) [Compound D1, 3-[6-(7-[[1-([4-[6-(azetidin-1-yl)-2-methyl-1-oxo-2,7-naphthyridin-4-yl]-2,6-dimethoxyphenyl]methyl)piperidin-4-yl]methyl]-2,7-diazaspiro[3.5]nonan-2-yl)-1-oxo-3H-isoindol-2-yl]piperidine-2,6-dione]
[1]
  % Degradation: 0.438%
  % Mass Balance: 108.2%
  Area %: 93.734%
[2]
  % Degradation: 4.781%
  % Mass Balance: 106.5%
  Area %: 89.391%
[3]
  % Degradation: 8.992%
  % Mass Balance: 107.6%
  Area %: 85.180%
[4]
  % Degradation: 12.125%
  % Mass Balance: 106.9%
  Area %: 82.047%
[5]
  % Degradation: 25.210%
  % Mass Balance: 104.0%
  Area %: 68.962%
[6]
  % Degradation: 76.841%
  % Mass Balance: 98.0%
  Area %: 17.331%
Humidity, 92% RH, 1 d
  % Degradation: 1.245%
  % Mass Balance: 98.8%
  Area %: 92.927%
Humidity, 92% RH, 3 d
  % Degradation: 2.091%
  % Mass Balance: 99.5%
  Area %: 92.081%
Humidity, 92% RH, 7 d
  % Degradation: 3.282%
  % Mass Balance: 99.8%
  Area %: 90.890%
Oxidation, 3% H2O2 RT, 0 h
  % Degradation: 16.184%
  % Mass Balance: 106.8%
  Area %: 77.988%
Oxidation, 3% H2O2 RT, 8 h
  % Degradation: 60.417%
  % Mass Balance: 105.2%
  Area %: 33.755%
[7]
  % Degradation: 3.088%
  % Mass Balance: 101.0%
  Area %: 91.084%
[8]
  % Degradation: 3.256%
  % Mass Balance: 92.1%
  Area %: 90.916%
[9]
  % Degradation: 3.436%
  % Mass Balance: 105.7%
  Area %: 90.736%
[10]
  % Degradation: 0.656%
  % Mass Balance: 90.1%
  Area %: 93.516%
[11]
  % Degradation: 0.841%
  % Mass Balance: 93.7%
  Area %: 93.331%
[12]
  % Degradation: 1.299%
  % Mass Balance: 93.9%
  Area %: 92.873%
[13]
  % Degradation: 2.042%
  % Mass Balance: 93.7%
  Area %: 92.130%
[14]
  % Degradation: 1.674%
  % Mass Balance: 95.3%
  Area %: 92.498%
[15]
  % Degradation: 1.922%
  % Mass Balance: 103.1%
  Area %: 92.250%
[16]
  % Degradation: 2.133%
  % Mass Balance: 100.0%
  Area %: 92.039%
[17]
  % Degradation: 4.658%
  % Mass Balance: 100.8%
  Area %: 89.514%
[18]
  % Degradation: 1.534%
  % Mass Balance: 97.1%
  Area %: 92.638%
[19]
  % Degradation: 8.920%
  % Mass Balance: 102.6%
  Area %: 85.252%
[20]
  % Degradation: 15.170%
  % Mass Balance: 100.6%
  Area %: 79.002%
Thermal, 80° C., Solid, 1 d
  % Degradation: 0.724%
  % Mass Balance: 105.7%
  Area %: 93.448%
Thermal, 80° C., Solid, 3 d
  % Degradation: 0.978%
  % Mass Balance: 97.6%
  Area %: 93.194%
Thermal, 80° C., Solid, 7 d
  % Degradation: 11.980%
  % Mass Balance: 92.7%
  Area %: 82.192%
Thermal, 80° C., Solution, 1 d
  % Degradation: 0.119%
  % Mass Balance: 100.5%
  Area %: 94.053%
Thermal, 80° C., Solution, 7 d
  % Degradation: 62.235%
  % Mass Balance: 104.2%
  Area %: 31.937%
Unstressed
  Area %: 94.172%
